Experimental findings from patent US8304422B2, “Compositions and methods for inhibition of the JAK pathway” (Rigel Pharmaceuticals, Inc., priority 2007, dated 2012) are described below.

Broadly, the IC50 is the concentration needed to halve the response being measured.

In this experiment the test system is Ramos B-Cell Line Stimulated with IL-4. Briefly: Assay for Ramos B-Cell Line Stimulated with IL-4 (CD23 upregulation, FACS; Example 2). The class given is cell-based. The settings on record: human Ramos B cells, IL-4 50 units/mL for 20-24 hours, anti-CD23-PE. The text has this:
One means of assaying for such inhibition is detection of the effect of the 2,4-pyrimidinediamine compounds on the upregulation of downstream gene products. In the Ramos/IL4 assay, B-cells are stimulated with the cytokine Interleukin-4 (IL-4) leading to the activation of the JAK/Stat pathway through phosphorylation of the JAK family kinases, JAK1 and JAK3, which in turn phosphorylate and activate the transcription factor Stat-6. […] To study the effect of inhibitors (e.g., the 2,4-substituted pyrimindinediamine compounds described herein) on the JAK1 and JAK3 kinases, human Ramos B cells are stimulated with human IL-4. 20 to 24 hours post stimulation, cells are stained for upregulation of CD23 and analyzed using flow cytometry (FACS). […] An exemplary assay of this type is described in greater detail in Example 2.
B-cells stimulated with cytokine Interleukin-4 (IL-4) activate the JAK/Stat pathway through phosphorylation of the JAK family kinases, JAK-1 and JAK-3, which in turn phosphorylate and activate the transcription factor Stat-6. […] To study the effect of inhibitors on the JAK family kinases, human Ramos B cells are stimulated with human IL-4.
The Ramos B-cell line was acquired from ATCC (ATCC Catalog No. CRL-1596). The cells were cultured in RPMI 1640 (Cellgro, MediaTech, Inc., Herndon, Va., Cat No. 10-040-CM) with 10% fetal bovine serum (FBS), heat inactivated (JRH Biosciences, Inc, Lenexa, Kans., Cat No. 12106-500M) according to ATCC propagation protocol. Cells were maintained at a density of 3.5×10^5. The day before the experiment, Ramos B-cells were diluted to 3.5×10^5 cells/mL to ensure that they were in a logarithmic growth phase.
Cells were spun down and suspended in RPMI with 5% serum. 5×10^4 cells were used per point in a 96-well tissue culture plate. Cells were pre-incubated with compound or DMSO (Sigma-Aldrich, St. Louis, Mo., Cat No. D2650) vehicle control for 1 hour in a 37° C. incubator.
Cells were then stimulated with IL-4 (Peprotech Inc., Rocky Hill, N.J., Cat No. 200-04) for a final concentration of 50 units/mL for 20-24 hours. Cells were then spun down and stained with anti-CD23-PE (BD Pharmingen, San Diego, Calif., Cat No. 555711) and analyzed by FACS. Detection was performed using a BD LSR I System Flow Cytometer, purchased from Becton Dickinson Biosciences of San Jose, Calif.

Molecules are shown by their SMILES.

`Cc1cnc(Nc2ccc3c(c2)ncn3CCO)nc1Nc1ccc(CNS(=O)(=O)C2CC2)cc1` [IV-8, N4-(4-cyclopropylsulfonylaminomethyl)phenyl-N2-[1-(2-hydroxyethyl)benzoimidazol-5-yl]-5-methyl-2,4-pyrimidinediamine] returned an IC50 of 257 nM.
Turning to `CNC(=O)COc1cccc(Nc2ncc(N)c(Nc3cccc(S(N)(=O)=O)c3)n2)c1` [I-7, 5-Amino-N4-(3-aminosulfonylphenyl)-N2-[3-(N-methylamino)carbonylmethyleneoxyphenyl]-2,4-pyrimidinediamine], the IC50 turned out to be 5820 nM.
With `Cc1nc2ccc(Nc3ncc(F)c(Nc4ccc5c(c4)CCN5S(C)(=O)=O)n3)cc2[nH]1` [VIII-6, 5-Fluoro-N4-[(1-methylsulfonyl)indolin-5-yl]-N2-(2-methylbenzimidazol-5-yl)-2,4-pyrimidinediamine], the IC50 was found to be 349 nM.
Turning to `Cc1cnc(Nc2ccc3c(c2)nc(C)n3C)nc1Nc1ccc2c(c1)C(NS(C)(=O)=O)CC2` (racemic) [VIII-3, (+/−)-N2-(1,2-Dimethylbenzimidazol-5-yl)-N4-[1-(methylsulfonylamino)indan-6-yl]-5-methyl-2,4-pyrimidinediamine], the IC50 stood at 717 nM.
With `C#CCNS(=O)(=O)c1cccc(Nc2nc(Nc3cc(OC)c(OC)c(OC)c3)ncc2F)c1` [I-1, 5-Fluoro-N4-[3-(prop-2-ynylaminosulfonyl)phenyl]-N2-(3,4,5-trimethoxyphenyl)-2,4-pyrimidinediamine], the IC50 amounted to 140 nM.
The value for `Nc1cnc(Nc2ccc3cn[nH]c3c2)nc1Nc1cccc(S(N)(=O)=O)c1` [VIII-8, 5-Amino-N4-(3-aminosulfonylphenyl)-N2-(indazoline-6-yl)-2,4-pyrimidinediamine] was 5110 nM; that for `C#CCOc1ccc(Nc2ncc(C)c(Nc3ccc(C)c(S(N)(=O)=O)c3)n2)cc1` [I-2, N4-(3-Aminosulfonyl-4-methylphenyl)-5-methyl-N2-[4-(prop-2-ynyloxy)phenyl]-2,4-pyrimidinediamine] was 181 nM; that for `COc1ccc(N(C)c2ncc(N)c(Nc3ccc(S(N)(=O)=O)cc3)n2)cc1` [I-9, 5-Amino-N4-(4-aminosulfonylphenyl)-N2-(4-methoxyphenyl)-N2-methyl-2,4-pyrimidinediamine] was 99600 nM.
The value for `Cc1cnc(Nc2ccc3[nH]c(C(C)(C)C)nc3c2)nc1Nc1ccc(CNS(=O)(=O)C2CC2)cc1` [IV-4, N2-(2-tert-butylbenzoimidazol-5-yl)-N4-(4-cyclopropylsulfonylaminomethyl)phenyl-5-methyl-2,4-pyrimidinediamine] was 127 nM; that for `Cc1cnc(Nc2cccc(C(N)=O)c2)nc1Nc1ccc(CNS(=O)(=O)C2CC2)c(Cl)c1` [II-18, N2-(3-aminocarbonyl)phenyl-N4-(3-chloro-4-cyclopropylsulfonylaminomethyl)phenyl-5-methyl-2,4-pyrimidinediamine] was 279 nM; that for `Cc1cnc(Nc2ccc3[nH]c(-c4cccnc4)nc3c2)nc1Nc1ccc(CNS(=O)(=O)C2CC2)cc1` [IV-3, N4-(4-cyclopropylsulfonylaminomethyl)phenyl-5-methyl-N2-[2-(pyridin-3-yl)benzoimidazol-5-yl]-2,4-pyrimidinediamine] was 178 nM.
The value for `O=S(=O)(NC1CC1)c1ccc(Nc2nc(Nc3ccc(OCc4cccnc4)cc3)ncc2C(F)(F)F)cc1` [I-13, N4-[4-N—(Cyclopropyl)aminosulfonylphenyl]-N2-[4-(3-pyridinyl)methyleneoxyphenyl]-5-trifluoromethyl-2,4-pyrimidinediamine] was 549 nM.
Consider `O=S(=O)(NCc1ccc(Nc2nc(Nc3ccc(F)c(F)c3)ncc2F)cc1)C1CC1` [II-2, N4-(4-cyclopropylsulfonylaminomethyl)phenyl-N2-(3,4-difluoro)phenyl-5-fluoro-2,4-pyrimidinediamine], for which inhibition was half-maximal at 614 nM (IC50).
In turn, `COc1cccc(N(C)c2ncc(N)c(Nc3ccc(S(N)(=O)=O)cc3)n2)c1` [I-11, 5-Amino-N4-(4-aminosulfonylphenyl)-N2-(3-methoxyphenyl)-N2-methyl-2,4-pyrimidinediamine] returned an IC50 of 15900 nM.
